The text below walks through data of patent US9034899B2, “Aryl, heteroaryl, and heterocycle substituted tetrahydroisoquinolines and use thereof” (Albany Molecular Research, Inc., priority 2009, dated 2015).

Test [1] concerns SERT. As to the kind of experiment: Occupancy assay, ex vivo binding in brain tissue, SERT. An excerpt: The general procedure for brain tissue collection and transporter occupancy assessment is briefly described as follows. Mice were sacrificed by asphyxiation in CO2, rats by decapitation and dogs by IV injection of euthanasia solution. For mice and rats, after the brains were removed from the skull, the forebrain tissue (removal of the brainstem and cerebellum) was used for SERT, NET, and DAT occupancy assessment. In dogs, the striatum was dissected for DAT occupancy and the remaining forebrain tissue (without the striatum, brainstem, and cerebellum) was used for SERT and NET occupancy assessment. The brain tissues were frozen in chilled isopentane and stored at −80° C. until homogenization.
The brain tissues were thawed and then homogenized using a polytron homogenizer (Kinematica). Sample aliquots were frozen immediately and stored at −80° C. Protein content was measured for each sample using a Coomassie protein assay kit (Pierce).
On the day of ex vivo binding for occupancy assessment, frozen sample aliquots were thawed and needle homogenized, and 100 μg of the tissue was incubated for SERT, NET, and DAT binding under assay conditions summarized in Table 2. After incubation, the reactions were terminated by the addition of ice-cold assay buffer and rapid filtration through a Brandel Cell Harvester using FPXLR-196 filters. The filters were washed twice with ice-cold incubation buffer, punched into a clear plate prior to the addition of 200 ul scintillation fluid per well. Radioligand was measured using a Wallac Microbeta liquid scintillation counter.
The specific binding was calculated by subtracting the value of the non-specific binding from that of the total binding in each sample. The percent occupancy was calculated as (1−specific binding in drug treated/specific binding in vehicle treated)×100%. For estimation of in vivo occupancy EC50 (total plasma concentration of compound producing 50% occupancy), plots of occupancy values versus plasma concentrations were fitted to a one-site binding model using nonlinear regression according to the following equation: % Occupancy=Emax*C/(EC50+C) where Emax is the maximal specific binding, C is the drug concentration, and EC50 is the total plasma concentration required for 50% binding site occupancy. Nonlinear regression was performed using GraphPad Prism version 3.00 (GraphPad Software, San Diego, Calif.).

The target in test [2] is hSERT (Homo sapiens (Human), UniProt P31645). As to the kind of experiment: SERT radioligand binding assay ([125I]RTI-55, HEK-293 membranes). As to conditions: (+)-enantiomers; read-out: SERT IC50. As for the experimental part: The medium was removed from the flasks and the cells rinsed with HBSS without Ca and without Mg. The cells were then incubated for 5-10 minutes in 10 mM Tris-Cl, pH 7.5, 5 mM EDTA before the cells were lifted with a combination of pipetting and scraping, as needed. The cell suspension was collected into centrifuge bottles and homogenized for 30 seconds with a Polytron homogenizer. The suspension was centrifuged for 30 minutes at 32,000×g, 4° C. The supernatant was decanted and the pellet resuspended and homogenized in 50 mM Tris-Cl, pH 7.5, 1 mM EDTA for 10 seconds. The suspension was then centrifuged again for 30 minutes at 32,000×g, 4° C. The supernatant was decanted and the pellet resuspended in 50 mM Tris-Cl, pH 7.5, 1 mM EDTA and briefly homogenized. A Bradford assay (Bio-rad) was performed and the membrane preparation diluted to 2 mg/ml with 50 mM Tris-Cl, pH 7.5, 1 mM EDTA. Aliquots were prepared, and then frozen and stored at −80° C.
hSERT, sequence (P31645 whole entry): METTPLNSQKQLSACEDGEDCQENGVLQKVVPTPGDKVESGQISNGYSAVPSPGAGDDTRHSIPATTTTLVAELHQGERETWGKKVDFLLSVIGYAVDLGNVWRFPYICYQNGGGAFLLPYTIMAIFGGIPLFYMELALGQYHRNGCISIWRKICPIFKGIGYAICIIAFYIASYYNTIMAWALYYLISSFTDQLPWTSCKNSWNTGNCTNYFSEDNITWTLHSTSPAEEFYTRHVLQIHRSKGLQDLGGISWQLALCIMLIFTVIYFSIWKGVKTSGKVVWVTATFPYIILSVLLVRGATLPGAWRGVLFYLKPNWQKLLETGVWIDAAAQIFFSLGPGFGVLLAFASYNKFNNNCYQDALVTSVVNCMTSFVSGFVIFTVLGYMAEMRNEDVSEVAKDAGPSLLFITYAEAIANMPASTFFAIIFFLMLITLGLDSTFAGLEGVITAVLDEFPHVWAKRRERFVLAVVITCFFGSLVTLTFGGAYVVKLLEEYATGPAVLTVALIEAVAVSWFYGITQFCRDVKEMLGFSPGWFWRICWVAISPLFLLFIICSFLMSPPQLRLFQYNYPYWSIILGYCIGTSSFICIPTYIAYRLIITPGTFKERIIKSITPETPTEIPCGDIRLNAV
Compounds were dissolved in 100% DMSO at a concentration 100 times the desired highest assay concentration, serially diluted 1:3 in 100% DMSO, and 0.4 μl/well of each solution was dispensed to a Nunc polypropylene, round bottom, 384-well plate. […] The contents of the assay plate were then transferred to a Millipore MultiscreenHTS GF/B filter plate which was pretreated with 0.5% PEI for at least one hour. The plate was vacuum filtered and washed with 7 washes of 100 μl/well 50 mM Tris-Cl, pH 7.5, 120 mM NaCl, 5 mM KCl chilled to 4° C. The filtration and washing were completed in less than 90 seconds. The plates were air-dried overnight, 12 μl/well of MicroScint scintillation fluid added, and the plates counted in a Trilux.
Each plate was run in triplicate, and the concentration response curve thus generated was fit using the four-parameter dose response equation, Y=Bottom+(Top-Bottom)/(1+10^((LogIC50−X)*HillSlope)) in order to determine the IC50 value for each compound. The radioligand concentration chosen for each assay corresponds to the Kd concentration determined through saturation binding analysis for each assay.

`CC1(C)NCC(c2ccc(Cl)c(Cl)c2)c2ccc(-c3cccnn3)cc21` (single isomer, unassigned) [Example 9, 4-(3,4-dichlorophenyl)-1,1-dimethyl-7-(pyridazin-3-yl)-1,2,3,4-tetrahydroisoquinoline]: the “SERT Occupancy %” value in test [1] (dose 1 mg/kg, time point 1 h) turned out to be 60%. Besides, the IC50 in test [2] was 4.8 nM.
`FC(F)Oc1ccc(-c2ccc3c(c2)CNCC3c2ccc(Cl)c(Cl)c2)nn1` (centres unmarked) [Example 12, 4-(3,4-dichlorophenyl)-7-(6-(difluoromethoxy)pyridazin-3-yl)-1,2,3,4-tetrahydroisoquinoline]: in test [1] (dose 1 mg/kg, time point 3 h), the “SERT Occupancy %” value is given as 82%. Moreover, in test [2], the IC50 is 3.6 nM.
Regarding `CC1(C)NCC(c2ccc(Cl)c(Cl)c2)c2ccc(-c3ccc(N)nn3)cc21` (centres unmarked) [Example 13, 4-(3,4-dichlorophenyl)-7-(6-aminopyridazin-3-yl)-1,1-dimethyl-1,2,3,4-tetrahydroisoquinoline], the “SERT Occupancy %” value in test [1] (dose 3 mg/kg, time point 3 h) was determined as 55%. For the same molecule, in test [2], the IC50 was 2.3 nM.
Take `Cc1noc(C)c1-c1ccc2c(c1)CNCC2c1ccc(Cl)c(Cl)c1` (centres unmarked) [Example 25, 4-(4-(3,4-dichlorophenyl)-1,2,3,4-tetrahydroisoquinolin-7-yl)-3,5-dimethylisoxazole]: the “SERT Occupancy %” value in test [1] (dose 1 mg/kg, time point 3 h) was 50%. For the same molecule, the IC50 in test [2] turned out to be 4.9 nM.
Take `Clc1ccc(C2CNCc3cc(-c4cccnn4)ccc32)cc1Cl` (centres unmarked) [Example 33, 4-(3,4-dichlorophenyl)-7-(pyridazin-3-yl)-1,2,3,4-tetrahydroisoquinoline]: the “SERT Occupancy %” value in test [1] (dose 1 mg/kg, time point 1 h) came to 49%. The IC50 in test [2] came out at 6.2 nM.
As for `Nc1ccc(-c2ccc3c(c2)CNCC3c2ccc(Cl)c(Cl)c2)nn1` (centres unmarked) [Example 34, 6-(4-(3,4-dichlorophenyl)-1,2,3,4-tetrahydroisoquinolin-7-yl)pyridazin-3-amine], in test [1] (dose 1 mg/kg, time point 1 h), the “SERT Occupancy %” value is reported as 10%. Further, the IC50 in test [2] amounted to 1.8 nM.
Take `CC1(C)NCC(c2ccc(Cl)c(Cl)c2)c2ccc(-c3ccc4ncnn4c3)cc21` (centres unmarked) [Example 40, 4-(3,4-dichlorophenyl)-7-([1,2,4]triazolo[1,5-a]pyridin-6-yl)-1,1-dimethyl-1,2,3,4-tetrahydroisoquinoline]: in test [1] (dose 3 mg/kg, time point 3 h), the “SERT Occupancy %” value is reported as 74%. In test [2], the IC50 came to 4.2 nM.
